Key:
KMH2-GLuc cells = assay: Matador assay, antibody drug conjugate induced cell death, KMH2; assay type: cell-based; conditions: 5 days of drug treatment
Protocol: (§1) We next used the Matador cytotoxicity assay to measure cell death induced by CD30-directed antibody-drug-conjugate (ADC), Brentuximab vedotin (Adcetris). […] Similarly, Jurkat cells were transduced with MSCVhygro-GLuc-HA-G02 (SEQ ID NO: 95) retroviral vector and selected with hygromycin to generate Jurkat-GLuc stable cell line. These GLuc-expressing target cells were plated at a concentration of 10×10^5 cells/well in a flat-bottom 24 well plate in 500 μl of phenol-red-free RPMI medium with 10% FBS and treated with the indicated dose of Brentuximab vedotin. After 5 days of drug treatment, the cells were mixed well, collected in 1.5 ml microfuge tubes and divided into 3 groups of 166 μl each. For the first group, the cells with cell supernatant were directly assayed for luciferase activity by plating 30 μl of cells/well in a white 384 well plate in triplicate. For the second group, 166 μl of cells were centrifuged and only cell supernatants were collected in a new tube and plated at 30 μl/well in triplicate in a white 384 well plate. […] The luciferase activity was precisely measured by BioTek synergy plate reader by injecting 0.5× CTZ assay buffer containing native coeloentrazine into each well of the 384 well plate in a well mode. […]

L428-GLuc cells = assay: Matador assay, antibody drug conjugate induced cell death, L428; assay type: cell-based; conditions: 5 days of drug treatment
Protocol: as §1

Jurkat-GLuc cells = assay: Matador assay, antibody drug conjugate induced cell death, Jurkat; assay type: cell-based; conditions: 5 days of drug treatment
Protocol: as §1

[1] = system: CAR CD8SP2-CD19MM-(vL-vH)-Myc-BBz-T2A-PAC T cell induced death of RAJI cells stably expressing GLuc; assay: Matador assay, drug modulation of CAR-T cell induced lysis of RAJI-GLuc cells; assay type: cell-based, Human; conditions: E:T 5:1, 4 hours co-culture; Dasatinib 50 nM and 100 nM
Protocol: Human peripheral blood T cells isolated using CD3 magnetic beads were infected with lentiviruses expressing the CAR construct CD8SP2-CD19MM-(vL-vH)-Myc-BBz-T2A-PAC [SEQ ID NO: 82] targeting CD19 and selected with puromycin. CAR-T cells were pre-incubated with the indicated concentrations of Dasatinib and Imatinib for approximately 30 min at 37° C. The drug-treated and untreated T cells were plated in a white 384-well plate. […] Dasatinib (Das) and Imatinib (Imat) were added to the wells to maintain the final concentrations as indicated. […] Therefore, the assay can be used to screen for and identify candidate compounds that modulate the activity of cytotoxic cells, such as cytotoxic T cells, NK cells, CAR-T cells and T cells expressing engineered TCRs.

BCBL-1-pLenti-GLuc cells = assay: Matador assay, drug induced cytotoxicity, BCBL-1; conditions: 96 hours, different doses
Protocol: (§2) The cell pellets were lysed in 1× Renilla Luciferase Assay Lysis Buffer by diluting one volume of 5× Renilla Luciferase Assay Lysis Buffer (Promega, Cat #E2820) into four volumes of distilled water. GLuc activity was measured in the cellular supernatants and cell lysates fractions separately in triplicate by addition of 0.25× coelentrazine assay buffer (15 μl of assay buffer added to 15 μl of sample in a 384 well plate) to each fraction. For each sample, the average GLuc activity in the cellular supernatant was divided by the average GLuc activity in the cell lysates to normalize for difference in the number of GLuc expressing cells.

BC-3-pLenti-GLuc cells = assay: Matador assay, drug induced cytotoxicity, BC-3; assay type: cell-based; conditions: 96 hours, different doses
Protocol: as §2

[2] = system: RAJI cells expressing GLuc; assay: Antibody-dependent cellular cytotoxicity (ADCC) Matador assay; assay type: cell-based
Protocol: Antibody-dependent cellular cytotoxicity (ADCC) assay was performed performed essentially as described earlier (Teeling, French et al. 2004). To determine the cytotoxicity of Rituximab monoclonal antibody, the cell death was assessed using Matador assay. Peripheral Blood Mononuclear Cells (PBMC) were isolated by Ficoll-Hypaque gradient centrifugation from buffy coat cells obtained from a de-identified healthy donor as a source of natural effector. […] The cells were either left untreated, or treated with 1 μg/ml or 10 μg/ml of Rituximab. The plates were incubated at 37° C. for 4 hours in a CO2 incubator. After incubation for 4 hours, the cell death was assessed by luciferase assay by addition of CTZ assay buffer containing native coelentrazine to the wells as described earlier.

[3] = Stability of luciferases in cell culture supernatants at 37° C. under Matador assay conditions; assay type: physicochemical; conditions: for time for which luminescence was stable: cell culture supernatants of K562 cells co-cultured with NK92MI
Protocol: Post-incubation, the cell-free supernatants were divided into 7 different tubes and frozen immediately at −80° C. The tubes were then incubated at 37° C. for 0, 0.5, 1, 2, 4, 6, and 24 hours.
Although thermostable luciferases are stable at 37° C., it was not obvious whether thermostability is the only criteria for stability of a reporter under the conditions used in the cytotoxicity assays. Thus, a thermostable luciferase could be degraded under the culture conditions of the cytotoxicity assay due to the activity of proteases that are present in the serum or are released during the process of cell death. Therefore, to examine whether thermostable luciferases are suitable for inclusion in the Matador cytotoxicity assay, K562 cells stably expressing LucPPe-146-1H2 mutant were plated in a 6-well plate, treated with media alone (control) or co-cultured with NK92MI at Effector:Target (E:T) ratio of 1:1 for 4 hours. After incubation, cell-free supernatants were transferred into 7 different tubes and frozen immediately at −80° C. The tubes were directly transferred to 37° C. (from −80° C.) and were incubated for indicated time periods (0 to 24 hours). The luminescence was measured by adding D-luciferin containing assay buffer directly to each well in well mode. […] Furthermore, the luminescence signal was stable in the cell culture medium for nearly 4-6 hours.

[4] = Stability of luciferase activity in supernatants after freezing and thawing; assay type: physicochemical; conditions: supernatants frozen, thawed two weeks later
Excerpt: Two weeks later, the supernatants were thawed and then re-assayed after addition of coeloentrazine.

[5] = cited from earlier work

For Brentuximab vedotin, the “GLuc activity in cell supernatant normalized for GLuc activity in cell lysates” value (KMH2-GLuc cells) was “significant increase in GLuc activity in cell supernatant”, the “GLuc activity in the supernatant” value (KMH2-GLuc cells; not normalized) was “increase in GLuc activity in the supernatant” and the “GLuc activity in cell supernatant normalized for GLuc activity in cell lysates” value (L428-GLuc cells) was “significant increase in GLuc activity in cell supernatant”. For the same molecule, the “GLuc activity in the supernatant” value (L428-GLuc cells; not normalized) was “increase in GLuc activity in the supernatant”, the “GLuc activity in cell supernatant normalized for GLuc activity in cell lysates” value (Jurkat-GLuc cells) was “significant increase in GLuc activity in cell supernatant” and the “GLuc activity in the supernatant” value (Jurkat-GLuc cells; not normalized) was “increase in GLuc activity in the supernatant”.

With Cc1ccc(NC(=O)c2ccc(CN3CCN(C)CC3)cc2)cc1Nc1nccc(-c2cccnc2)n1 [Imatinib] the “CAR-T cell induced cell death (GLuc activity)” value [1] was “no effect”.

In the case of COc1c(C)cnc(Cn2cnc3c(Cl)nc(N)nc32)c1C [BIIB021], the “GLuc activity in the supernatant normalized to cell lysates” value (BCBL-1-pLenti-GLuc cells) is reported as “significant increase in GLuc activity in the supernatant” and the “GLuc activity in the supernatant normalized to cell lysates” value (BC-3-pLenti-GLuc cells) is reported as “significant increase in GLuc activity in the supernatant”.

In the case of “rituximab: Rituximab monoclonal antibody, obtained from Genentech”, the luciferase activity ([2]; RAJI cells stably expressing NLuc) is reported as “Essentially similar results”, the “increase in GLuc activity” value ([2]; in the presence of PBMC, 4 hours, vs untreated cells) is reported as “greater than 10 fold” and the luciferase activity ([2]; in the presence of PBMC, 1 μg/ml and 10 μg/ml) is reported as “increase in luciferase activity”. For the same molecule, the luciferase activity ([2]; rituximab alone, 1 μg/ml and 10 m/ml, 4 hours, vs untreated cells) was “increase in luciferase activity”.

In the case of Cc1sc2c(c1C)C(c1ccc(Cl)cc1)=N[C@@H](CC(=O)OC(C)(C)C)c1nnc(C)n1-2 [JQ1], the “GLuc activity in the supernatant normalized to cell lysates” value (BCBL-1-pLenti-GLuc cells) is reported as “significant increase in GLuc activity in the supernatant” and the “GLuc activity in the supernatant normalized to cell lysates” value (BC-3-pLenti-GLuc cells) is reported as “significant increase in GLuc activity in the supernatant”.

B1: LucPPe-146-1H2: thermostable luciferase from Photuris pennsylvanica, SEQ ID NO: 51 (protein)
chain: MADKNILYGPEPFYPLEDGTAGEQMFDALSRYAAIPGCIALTNAHTKENVLYEEFLKLSCRLAESFKKYGLKQNDTIAVCSENSLQFFLPVIASLYLGIIVAPVNDKYIERELIHSLGIVKPRIVFCSKNTFQKVLNVKSKLKSIETIIILDLNEDLGGYQCLNNFISQNSDSNLDVKKFKPYSFNRDDQVASIMFSSGTTGLPKGVMLTHKNIVARFSIAKDPTFGNAINPTSAILTVIPFHHGFGMMTTLGYFTCGFRVVLMHTFEEKLFLQSLQDYKVESTLLVPTLMAFLAKSALVEKYDLSHLKEIASGGAPLSKEIGEMVKKRFKLNFVRQGYGLTETTSAVLITPKGDAKPGSTGKIVPLHAVKVVDPTTGKILGPNEPGELYFKGPMIMKGYYNNEEATKAIIDNDGWLRSGDIAYYDNDGHFYIVDRLKSLIKYKGYQVAPAEIEGILLQHPYIVDAGVTGIPDEAAGELPAAGVVVQTGKYLNEQIVQDYVASQVSTAKWLRGGVKFLDEIPKGSTGKIDRKVLRQMLEKHTNG
modifications: LucPPe-146-1H2
In the case of B1, the “time for which luminescence signal was stable in the cell culture medium” value ([3]; supernatants of K562 LucPPe-146-1H2 cells) is reported as 4 to 6 h.

B2: Mluc7: Metrida longa Luc7 M43L/M110L variant, SEQ ID NO: 34 (protein)
chain: MNPTVNNDVNRGKMPGKKLPLEVLIELEANAFKAGCTRGCLICLSKIKCTAKMKQYIPGRCHDYGGDKKTGQAGIVGAIVDIPEISGFKEMEPLEQFIAQVDLCADCTTGCLKGLANVKCSELLKKWLPDRCASFADKIQKEAHNIKGLAGDR
modifications: MLuc7 (Metrida longa Luc7) M43L/M110L variant
With B2 the “time for which luminescence was stable” value [3] was 24 h.

B3: Renilla Luc: Renilla Luc, SEQ ID NO: 49 (protein)
chain: MASKVYDPEQRKRMITGPQWWARCKQMNVLDSFINYYDSEKHAENAVIFLHGNAASSYLWRHVVPHIEPVARCIIPDLIGMGKSGKSGNGSYRLLDHYKYLTAWFELLNLPKKIIFVGHDWGACLAFHYSYEHQDKIKAIVHAESVVDVIESWDEWPDIEEDIALIKSEEGEKMVLENNFFVETMLPSKIMRKLEPEEFAAYLEPFKEKGEVRRPTLSWPREIPLVKGGKPDVVQIVRNYNAYLRASDDLPKMFIESDPGFFSNAIVEGAKKFPNTEFVKVKGLHFSQEDAPDEMGKYIKSFVERVLKNEQ
modifications: RLuc (Renilla Luc)
With B3 the “luciferase activity after freezing and thawing” value [4] was “no major change”.

B4: TLuc16: TurboLuc16, SEQ ID NO: 33 (protein)
chain: MEAEAERGKLPGKKLPLEVLIELEANARKAGCTRGCLICLSKIKCTAKMKKYIPGRCADYGGDKKTGQAGIVGAIVDIPEISGFKEMEPMEQFIAQVDRCADCTTGCLKGLANVKCSDLLKKWLPGRCATFADKIQSEVDNIKGLAGD
modifications: TLuc (TurboLuc16)
With B4 the “time for which luminescence was stable” value [3] was 24 h.

B5: NLuc: NanoLuc, SEQ ID NO: 32 (protein)
chain: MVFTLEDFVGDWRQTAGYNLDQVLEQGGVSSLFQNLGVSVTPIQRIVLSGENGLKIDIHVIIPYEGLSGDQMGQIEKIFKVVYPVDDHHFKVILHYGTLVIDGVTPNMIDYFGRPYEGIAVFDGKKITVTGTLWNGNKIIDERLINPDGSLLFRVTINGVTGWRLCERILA
modifications: NLuc (NanoLuc)
In the case of B5, the “time activity is retained in culture medium” value ([5]; 37° C.) is listed as over 15 h, the “specific activity relative to firefly or Renilla luciferases” value ([5]; configured for glow-type assays) is listed as about 150 fold and the “time for which luminescence was stable” value [3] is listed as 24 h.

Reference: patent publication US11307205B2, “Non-radioactive cytotoxicity assays” (University of Southern California, priority 2016, dated 2022)
